Experimental data from patent publication US9346811B2, “6,7-dihydro-pyrazolo[1,5-a]pyrazin-4-ylamine derivatives useful as inhibitors of beta-secretase (BACE)” (JANSSEN PHARMACEUTICA NV, priority 2011, dated 2016).

What was measured:
[1] = test system: Aβtotal produced and secreted into the medium of human neuroblastoma SKNBE2 cells; assay: Cellular αlisa assay in SKNBE2 cells, Aβtotal; assay type: cell-based; conditions: SKNBE2 cells expressing hAPP695, 18 hours incubation; for IC50: Homo sapiens, SKNBE2, 18 h, read-out: Cellular αlisa assay in SKNBE2 cells Aβtotal pIC50 (converted)
Method: (§1) Cellular αlisa Assay in SKNBE2 Cells
(§2) In two αlisa assays the levels of Aβtotal and Aβ42 produced and secreted into the medium of human neuroblastoma SKNBE2 cells are quantified. The assay is based on the human neuroblastoma SKNBE2 expressing the wild type Amyloid Precursor Protein (hAPP695). The compounds are diluted and added to these cells, incubated for 18 hours and then measurements of Aβ42 and Aβtotal are taken. Aβtotal and Aβ42 are measured by sandwich αlisa. αlisa is a sandwich assay using biotinylated antibody AbN/25 attached to streptavidin coated beads and antibody Ab4G8 or cAb42/26 conjugated acceptor beads for the detection of Aβtotal and Aβ42 respectively. In the presence of Aβtotal or Aβ42, the beads come into close proximity. The excitation of the Donor beads provokes the release of singlet oxygen molecules that triggers a cascade of energy transfer in the Acceptor beads, resulting in light emission. Light emission is measured after 1 hour incubation (excitation at […] and emission at 615 nm).
(§3) A best-fit curve is fitted by a minimum sum of squares method to the plot of % Controlmin versus compound concentration.

[2] = test system: Aβ42 produced and secreted into the medium of human neuroblastoma SKNBE2 cells; assay: Cellular αlisa assay in SKNBE2 cells, Aβ42; assay type: cell-based; conditions: SKNBE2 cells expressing hAPP695, 18 hours incubation; for IC50: Homo sapiens, SKNBE2, 18 h, read-out: Cellular αlisa assay in SKNBE2 cells Aβ42 pIC50 (converted)
Method: as §1, §2, §3

brain levels of total Aβ = assay: In vivo efficacy: brain Aβtotal lowering (ELISA); design: species or system mouse
From the text: (§4) To determine whether acute administration of an Aβ42 peptide lowering agent would reduce Aβ peptide levels in vivo, non-transgenic rodents, e.g. mice or rats were used. Animals treated with the Aβ peptide lowering agent were examined and compared to those untreated or treated with vehicle and brain levels of soluble Aβ42 and total Aβ were quantitated by standard techniques, for example, using ELISA. Treatment periods varied from hours (h) to days and were adjusted based on the results of the Aβ42 lowering once a time course of onset of effect could be established.
(§5) A typical protocol for measuring Aβ42 lowering in vivo is shown but it is only one of many variations that could be used to optimize the levels of detectable Aβ. For example, Aβ peptide lowering compounds were formulated in 20% hydroxypropyl β cyclodextrin. The Aβ peptide lowering agents were administered as a single oral dose (p.o.) or a single subcutaneous dose (s.c.) to overnight fasted animals. After a certain time, usually 2 or 4 h (as indicated in Table 7), the animals were sacrificed and Aβ42 levels were analysed.
(§6) Blood was collected by decapitation and exsanguinations in EDTA-treated collection tubes. Blood was centrifuged at 1900 g for 10 minutes (min) at 4° C. and the plasma recovered and flash frozen for later analysis. The brain was removed from the cranium and hindbrain. The cerebellum was removed and the left and right hemisphere were separated. The left hemisphere was stored at −18° C. for quantitative analysis of test compound levels. The right hemisphere was rinsed with phosphate-buffered saline (PBS) buffer and immediately frozen on dry ice and stored at −80° C. until homogenization for biochemical assays.
(§7) Mouse brains from non-transgenic animals were resuspended in 8 volumes of 0.4% DEA (diethylamine)/50 mM NaCl containing protease inhibitors (Roche-11873580001 or 04693159001) per gram of tissue, e.g. for 0.158 g brain, add 1.264 ml of 0.4% DEA. All samples were homogenized in the FastPrep-24 system (MP Biomedicals) using lysing matrix D (MPBio #6913-100) at 6 m/s for 20 seconds. Homogenates were centrifuged at 221.300×g for 50 min. The resulting high speed supernatants were then transferred to fresh eppendorf tubes. Nine parts of supernatant were neutralized with 1 part 0.5 M Tris-HCl pH 6.8 and used to quantify Aβtotal and Aβ42.
(§8) To quantify the amount of Aβtotal and Aβ42 in the soluble fraction of the brain homogenates, Enzyme-Linked-Immunosorbent-Assays were used. Briefly, the standards (a dilution of synthetic Aβ1-40 and […], Bachem) were prepared in 1.5 ml Eppendorf tube in Ultraculture, with final concentrations ranging from 10000 to 0.3 pg/ml. The samples and standards were co-incubated with HRPO-labelled N-terminal antibody for Aβ42 detection and with the biotinylated mid-domain antibody 4G8 for Aβtotal detection. 50 μl of conjugate/sample or conjugate/standards mixtures were then added to the antibody-coated plate (the capture antibodies selectively recognize the C-terminal end of Aβ42, antibody JRF/cAβ42/26, for Aβ42 detection and the N-terminus of Aβ, antibody JRF/rAβ/2, for Aβtotal detection). The plate was allowed to incubate overnight at 4° C. in order to allow formation of the antibody-amyloid complex. Following this incubation and subsequent wash steps the ELISA for Aβ42 quantification was finished by addition of Quanta Blu fluorogenic peroxidase substrate according to the manufacturer's instructions (Pierce Corp., Rockford, Il.). A reading was performed after 10 to 15 min (excitation 320 nm/emission 420 nm).
For Aβtotal detection, a Streptavidine-Peroxidase-Conjugate was added, followed 60 min later by an additional wash step and addition of Quanta Blu fluorogenic peroxidase substrate according to the manufacturer's instructions (Pierce Corp., Rockford, Il.). A reading was performed after 10 to 15 min (excitation 320 nm/emission 420 nm).

[3] = test system: brain levels of soluble Aβ42; assay: In vivo efficacy: brain Aβ42 lowering (ELISA); design: species or system mouse
From the text: as §4, §5, §6, §7, §8
In this model at least 20% Aβ42 lowering compared to untreated animals would be advantageous.

[4] = target: recombinant BACE1 protein (Homo sapiens, UniProt P56817); assay: Biochemical FRET based assay; conditions: recombinant BACE1 1 μg/ml, 120 min, pH 5.0; for IC50: read-out: Biochemical FRET based assay pIC50 (converted)
From the text: Biochemical FRET Based Assay
This assay is a Fluorescence Resonance Energy Transfer Assay (FRET) based assay. The substrate for this assay is an APP derived 13 amino acids peptide that contains the ‘Swedish’ Lys-Met/Asn-Leu mutation of the amyloid precursor protein (APP) β-secretase cleavage site. This substrate also contains two fluorophores: (7-methoxycoumarin-4-yl)acetic acid (Mca) is a fluorescent donor with excitation wavelength at 320 nm and emission at 405 nm and 2,4-Dinitrophenyl (Dnp) is a proprietary quencher acceptor. […] Upon cleavage by BACE1, the fluorophore Mca is separated from the quenching group Dnp, restoring the full fluorescence yield of the donor. The increase in fluorescence is linearly related to the rate of proteolysis (Koike H et al. J. Biochem. 1999, 126, 235-242). Briefly in a 384-well format recombinant BACE1 protein in a final concentration of 1 μg/ml is incubated for 120 min at room temperature with 10 μm substrate in incubation buffer (40 mM Citrate buffer pH 5.0, 0.04% PEG, 4% DMSO) in the absence or presence of compound. Next the amount of proteolysis is directly measured by fluorescence measurement at T=0 and T=120 (excitation at 320 nm and emission at 405 nm).

[5] = 5 mg/kg p.o., 4 h. after administration
[6] = 30 mg/kg p.o., 4 h. after administration
[7] = 30 mg/kg p.o., 2 h after administration
[8] = 10 mg/kg p.o., 4 h. after administration

Chain of recombinant BACE1 protein (P56817 46-501): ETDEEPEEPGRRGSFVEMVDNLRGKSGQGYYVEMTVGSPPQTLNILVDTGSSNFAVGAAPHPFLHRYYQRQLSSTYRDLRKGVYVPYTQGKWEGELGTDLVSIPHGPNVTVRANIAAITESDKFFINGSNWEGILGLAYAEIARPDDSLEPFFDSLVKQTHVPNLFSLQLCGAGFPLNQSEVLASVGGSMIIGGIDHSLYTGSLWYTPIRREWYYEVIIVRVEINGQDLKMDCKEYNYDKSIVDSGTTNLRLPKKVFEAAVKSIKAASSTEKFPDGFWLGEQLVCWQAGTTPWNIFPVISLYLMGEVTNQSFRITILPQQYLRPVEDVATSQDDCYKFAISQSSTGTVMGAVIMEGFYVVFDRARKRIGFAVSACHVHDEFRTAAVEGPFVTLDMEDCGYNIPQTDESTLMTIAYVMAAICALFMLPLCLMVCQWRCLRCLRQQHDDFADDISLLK

| SMILES | IC50 [1] [µM] | IC50 [2] [µM] | Aβtotal (% Ctrl)_Mean (brain levels of total Aβ; [5]) [% Ctrl] | Aβtotal (% Ctrl)_Mean (brain levels of total Aβ; [6]) [% Ctrl] | Aβ42 (% Ctrl)_Mean [3, 5] [% Ctrl] | Aβ42 (% Ctrl)_Mean [3, 6] [% Ctrl] | IC50 [4] [µM] | Cellular αlisa assay in SKNBE2 cells Aβtotal pIC50 [1] | Cellular αlisa assay in SKNBE2 cells Aβ42 pIC50 [2] | Aβtotal (% Ctrl)_Mean (brain levels of total Aβ; [7]) [% Ctrl] | Aβ42 (% Ctrl)_Mean [3, 7] [% Ctrl] | Biochemical FRET based assay pIC50 [4] | Aβtotal (% Ctrl)_Mean (brain levels of total Aβ; [8]) [% Ctrl] | Aβ42 (% Ctrl)_Mean [3, 8] [% Ctrl] |
| --- | --- | --- | --- | --- | --- | --- | --- | --- | --- | --- | --- | --- | --- | --- |
| C[C@@]1(c2cc(NC(=O)c3ccc(F)cn3)ccc2F)Cn2nc(C#N)cc2C(N)=N1 [Compound 24, (R)-5-fluoro-pyridine-2-carboxylic acid [3-(4-amino-2-cyano-6-methyl-6,7-dihydro-pyrazolo[1,5-a]pyrazin-6-yl)-4-fluoro-phenyl]-amide] | 0.00389 | 0.00331 | 59 | 31 | 66 | 16 | 0.0324 | – | – | – | – | – | – | – |
| COc1cnc(C(=O)Nc2cccc(C3(C)Cn4nc(C(F)(F)F)cc4C(N)=N3)c2)cn1 (single isomer, unassigned) [Compound 32] | – | – | – | – | – | – | – | 7.84 | 7.76 | 58 | 53 | 7.20 | – | – |
| C[C@@]1(c2cc(NC(=O)c3ccc(F)cn3)ccc2F)Cn2nc(C(F)F)cc2C(N)=N1 [Compound 27, (R)-5-fluoro-pyridine-2-carboxylic acid [3-(4-amino-2-difluoromethyl-6-methyl-6,7-dihydro-pyrazolo[1,5-a]pyrazin-6-yl)-4-fluoro-phenyl]-amide] | 0.00676 | 0.00708 | – | – | – | – | 0.0603 | – | – | – | – | – | 61 | 55 |
| CC1(c2cccc(NC(=O)c3ncc(Cl)cc3Cl)c2)Cn2nc(C(F)(F)F)cc2C(N)=N1 (single isomer, unassigned) [Compound 11, (R*)-3,5-dichloro-pyridine-2-carboxylic acid [3-(4-amino-6-methyl-2-trifluoromethyl-6,7-dihydro-pyrazolo[1,5-a]pyrazin-6-yl)-phenyl]-amide] | – | – | – | 84 | – | 89 | 0.0282 | 8.01 | 7.94 | – | – | – | – | – |
| COc1cnc(C(=O)Nc2ccc(F)c([C@]3(C)Cn4nc(C(F)F)cc4C(N)=N3)c2)cn1 [Compound 28, (R)-5-methoxy-pyrazine-2-carboxylic acid [3-(4-amino-2-difluoromethyl-6-methyl-6,7-dihydro-pyrazolo[1,5-a]pyrazin-6-yl)-4-fluoro-phenyl]-amide] | 0.00631 | 0.00525 | – | – | – | – | 0.0692 | – | – | – | – | – | 50 | 39 |
| COc1cnc(C(=O)Nc2ccc(F)c([C@]3(C)Cn4nc(C)c(F)c4C(N)=N3)c2)cn1 [Compound 29, (R)-5-methoxy-pyrazine-2-carboxylic acid [3-(4-amino-3-fluoro-2,6-dimethyl-6,7-dihydro-pyrazolo[1,5-a]pyrazin-6-yl)-4-fluoro-phenyl]-amide] | 0.017 | 0.0162 | – | – | – | – | 0.0813 | – | – | – | – | – | 58 | 59 |
